Results as given in patent publication US20210221785A1, “AMINO-PYRIMIDONYL DERIVATIVES, A PROCESS FOR THEIR PREPARATION AND PHARMACEUTICAL COMPOSITIONS CONTAINING THEM” (LES LABORATOIRES SERVIER, priority 2018, published 2021).

Key:
[1] = target: T1, His-His-USP7 (aa208-560, |C315A|) (Homo sapiens, UniProt Q93009, C315A); assay: Evaluation of the inhibition of USP7 by the Fluorescence Intensity (FLINT) readings; format: biochemical; settings: 0.25 nM His-His-USP7, compound incubated 60 minutes at 30° C., 500 nM Ubiquitin-Rhodamine-110 substrate; 50% reduction in kinetic rate
T1 construct: His-His-USP7 (aa208-560, |C315A|); His-His (N)
Outline: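 IC50 reflects 50% reduction in kinetic rate of rhodamine-110 release (Ex485/Em535, reads every 3 min over 21 min), normalised to DMSO and no-enzyme controls, from an 11-point 4-parameter fit. Substrate is 500 nM Ub-Rh110, added after 60 min, 30 °C preincubation of compound with 0.25 nM USP7 aa208–560 C315A. Buffer is Bicine pH 8.0 with 10% DMSO.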

[2] = system: Z138 mantle cell lymphoma tumour cell lines; assay: In vitro cytotoxicity, MTT assay; format: cell-based; settings: Homo sapiens, Z-138, 96 h, Z138 cells exposed to the test compounds for 96 hours; cell viability vs DMSO treated cells
Outline: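 Z138 cells exposed to compounds for 96 hours, then MTT added for 4 hours. Viable cells quantified from formazan absorbance at 540 nm.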

T1 sequence (Q93009 208-560 C315A): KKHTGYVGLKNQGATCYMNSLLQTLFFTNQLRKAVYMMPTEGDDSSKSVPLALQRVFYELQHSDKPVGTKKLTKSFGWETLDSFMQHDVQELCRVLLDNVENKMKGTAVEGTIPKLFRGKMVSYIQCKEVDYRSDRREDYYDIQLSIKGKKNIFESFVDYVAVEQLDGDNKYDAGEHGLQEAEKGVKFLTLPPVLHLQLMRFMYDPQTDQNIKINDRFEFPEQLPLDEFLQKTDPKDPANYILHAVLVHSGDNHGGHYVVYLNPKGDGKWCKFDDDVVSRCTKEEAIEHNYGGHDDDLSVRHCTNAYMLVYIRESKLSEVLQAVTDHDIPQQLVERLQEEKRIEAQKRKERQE

IC50 [1]	SMILES	IC50 [2]
79.5 nM	Nc1c(Oc2ccc(F)cc2)ncn(CC2(O)CCN(C(=O)[C@@H]3CC[C@@](F)(Cc4ccccn4)C[C@H]3c3ccccc3)CC2)c1=O (relative stereo) [Example 126, rel-5-amino-3-[(1-{[(1R,2R,4S)-4-fluoro-2-phenyl-4-(pyridin-2-ylmethyl)cyclohexyl]carbonyl)}-4-hydroxypiperidin-4-yl)methyl]-6-(4-fluorophenoxy)pyrimidin-4-one]	0.17 µM
42 nM	Nc1c(Oc2ccc(F)c(O)c2)ncn(CC2(O)CCN(C(=O)[C@@H]3CCC(F)(F)C[C@H]3c3ccccc3)CC2)c1=O [Example 41, 5-amino-3-({1-[(1R,2R)-4,4-difluoro-2-phenylcyclohexane-1-carbonyl]-4-hydroxypiperidin-4-yl}methyl)-6-(4-fluoro-3-hydroxyphenoxy)pyrimidin-4(3H)-one]	0.0096 µM
85.8 nM	CNc1c(Oc2ccccc2)ncn(CC2(O)CCN(C(=O)[C@@H]3CCC(F)(F)C[C@H]3c3ccccc3)CC2)c1=O [Example 9, 3-({1-[(1R4R)-4,4-difluoro-2-phenylcyclohexane-1-carbonyl]-4-hydroxypiperidin-4-yl}methyl)-5-(methylamino)-6-phenoxypyrimidin-4(3H)-one]	0.287 µM
21 nM	Nc1c(Oc2ccc(F)cc2)ncn(CC2(O)CCN(C(=O)[C@@H]3CC[C@](F)(C#Cc4cncnc4)C[C@H]3c3ccccc3)CC2)c1=O [Example 144, 5-amino-3-({1-[(1R,2R,4R)-4-fluoro-2-phenyl-4-[2-(pyrimidin-5-yl)ethynyl]cyclohexanecarbonyl]-4-hydroxypiperidin-4-yl}methyl)-6-(4-fluorophenyoxy)-3,4-dihydropyrimidin-4-one]	0.0122 µM
24.6 nM	CO[C@]1(C#Cc2cccc(N)n2)CC[C@@H](C(=O)N2CC[C@](O)(Cn3cnc(Oc4ccc(F)cc4)c(N)c3=O)C(F)(F)C2)[C@H](c2ccccc2)C1 [Example 164, 5-amino-3-{[(4S)-1-[(1R,2R,4R)-4-[2-(6-aminopyridin-2-yl)ethynyl]-4-methoxy-2-phenylcyclohexanecarbonyl]-3,3-difluoro-4-hydroxypiperidin-4-yl]methyl}-6-(4-fluorophenoxy)-3,4-dihydropyrimidin-4-one]	0.0165 µM
